target: Phosphodiesterase 4 (Rattus norvegicus) (UniProt P14270+P14646+P14644+P54748); test: In vitro inhibitory activity against phosphodiesterase 4 from rat liver at concentration of 3 uM

Row | SMILES | Inhibition [%]
1 | Cn1c(=O)n(Cc2ccccc2)c(=O)c2cc(COc3ccccc3)cnc21 | 45.1
2 | CCOc1ccc(-c2ccnc3c2c(=O)n(Cc2ccccc2)c(=O)n3C)cc1 | 35.1
3 | Cn1c(=O)n(Cc2ccccc2)c(=O)c2cc(Cc3ccccc3)cnc21 | 68.2
4 | Cn1c(=O)n(Cc2ccccc2)c(=O)c2c(-c3ccccc3F)ccnc21 | 69.7
5 | Cn1c(=O)n(Cc2ccccc2)c(=O)c2c(Cc3ccccc3)ccnc21 | 57.1
6 | Cn1c(=O)n(Cc2ccccc2)c(=O)c2cc(COCc3ccccc3)cnc21 | 49.8
7 | Cn1c(=O)n(Cc2ccccc2)c(=O)c2cc(-c3ccc(Cl)cc3)cnc21 | 47.8
8 | CCCOCc1cnc2c(c1)c(=O)n(Cc1ccccc1)c(=O)n2C | 46.7
9 | CCOC(=O)c1cnc2c(c1)c(=O)n(Cc1ccccc1)c(=O)n2C | 43

The next lines start with the values.

Row | Inhibition [%] | SMILES
10 | 53.7 | Cn1c(=O)n(Cc2ccccc2)c(=O)c2cc(-c3ccccc3C(F)(F)F)cnc21
11 | 44 | Cn1c(=O)n(Cc2ccccc2)c(=O)c2cc(-c3ccc(F)cc3)cnc21
12 | 31.3 | Cn1c(=O)n(Cc2ccccc2)c(=O)c2cc(-c3ccccc3)cnc21
13 | 37.6 | Cn1c(=O)n(Cc2ccccc2)c(=O)c2cc(-c3cccc(C(F)(F)F)c3)cnc21
14 | 23.5 | Cn1c(=O)n(Cc2ccccc2)c(=O)c2cc(-c3cccc([N+](=O)[O-])c3)cnc21
15 | 46.4 | Cn1c(=O)n(Cc2ccccc2)c(=O)c2cc(-c3ccccc3F)cnc21

target: Phosphodiesterase 4 (Rattus norvegicus, UniProt P14270+P14646+P14644+P54748); test: Inhibition of phosphodiesterase 4 from rat liver at 0.3 uM (not determined)

Row | IC50 [µM] | SMILES
16 | > 10 | Cn1c(=O)n(Cc2ccccc2)c(=O)c2cc(-c3ccccc3)cnc21

Source: ChEMBL document CHEMBL1134209, “Syntheses and evaluation of pyrido[2,3-dlpyrimidine-2,4-diones as PDE 4 inhibitors” (Bioorg Med Chem Lett, 2001)
